Measured values from patent US11491122B2, “Use of a combination of Adelmidrol and hyaluronic acid in the treatment of pain caused by osteoarthritis and epithelial dysfunctions” (Epitech Group S.p.A., priority 2014, dated 2022).

Assays:
NAAA = target: T1, NAAA (Rattus norvegicus, UniProt Q5KTC7); test: Maximum reduction of the activity of the PEA-degrading enzyme NAAA, rat brain membrane homogenates; type: biochemical
T1 construct: was also measured using homogenates rat brain membranes; from tissue; host or cells: rat brain membrane homogenates
T1 sequence (Q5KTC7 131-362 limits assumed): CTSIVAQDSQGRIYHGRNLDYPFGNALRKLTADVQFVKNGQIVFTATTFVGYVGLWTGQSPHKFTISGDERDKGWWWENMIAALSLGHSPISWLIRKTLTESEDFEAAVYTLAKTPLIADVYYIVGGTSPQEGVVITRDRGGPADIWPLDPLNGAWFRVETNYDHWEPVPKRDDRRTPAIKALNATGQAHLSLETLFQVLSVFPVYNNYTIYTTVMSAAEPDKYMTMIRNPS
T1 sequence (Q5KTC7 34-130 limits assumed): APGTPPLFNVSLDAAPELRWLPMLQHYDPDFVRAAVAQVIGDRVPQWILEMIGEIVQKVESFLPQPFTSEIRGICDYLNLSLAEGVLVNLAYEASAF
Experimental: (§1) The maximum reduction of the activity of the palmitoylethanolamide-degrading enzymes (NAAA and FAAH) was also measured using homogenates rat brain membranes [Ueda N et al Chem Phys Lipids. 2000 November; 108(1-2):107-21; Tsuboi K. Et al J Biol Chem. 2005 March 25; 280(12):11082-92].

[1] = cited from earlier work
TNF-α = test: Osteoarthritis induced by sodium monoiodoacetate: TNF-α in the synovial fluid (ELISA); type: in vivo, rat; conditions: intra-articular Adelmidrol, MIA osteoarthritic rats
Experimental: (§2) The experiments were conducted using adult male rats of the Wistar strain (weight 200-250 grams) supplied by Harlan Italy, put in enclosures for a week in standard dietary and environmental conditions (temperature 21±1° C., humidity 60±10%, light 12 hours a day and water and food ad libitum) before being used in the experiments. […] MIA acts locally by inhibiting glycolysis, destroying the metabolism of chondrocytes and producing cartilage degeneration. At the time of the induction of osteoarthritis, MIA was dissolved in sterile saline. Before carrying out the intra-articular administration, the rats were anesthetized with pentobarbital sodium dissolved in saline at the dose of 60 mg/kg, in an administration volume of 0.2 ml/hg intraperitoneally (i.p.). The animals that received the MIA injection in their right knee represent the osteoarthritic (OA) group. […]
The determination of TNF-α levels in the synovial fluid was made using an ELISA (Enzyme Linked Immuno-Sorbent-Assay) immunoenzymatic assay using a commercial kit from Biosource International Inc. The method uses a procedure in which the antigen is trapped between two layers of antibodies and for this reason it is called an ELISA sandwich. […] Following the enzymatic reaction, a product is generated whose staining intensity is measured spectrophotometrically and is directly proportional to the concentration of TNF-α in the samples. […]

[2] = test system: patients with Bladder Pain Syndrome (BPS); test: Intravesical instillation in patients with Painful Bladder Syndrome (BPS); type: in vivo, human; conditions: 7 female BPS patients
Experimental: A sterile solution containing 2% Adelmidrol and 0.1% hyaluronic acid sodium salt was instilled into the bladder of no. 7 female patients through catheter after the complete emptying of the bladder itself. […] Most of the times, the patients had comorbidity with other pelvic diseases (vulvar vestibulitis 4/7; IBS (irritable bowel syndrome) 2/7; Fibromyalgia Syndrome 1/7, Recurrent Urinary Tract Infections (RUTI) 3/7).
Treatments were carried out as attack therapy (one intravesical instillation per week for 8 weeks), followed by maintenance therapy (one instillation per month for 6 months).
Using a dedicated diary, the frequency of urination (measured as the number of urinations in 12 hours), both during the day and at night, and the discomfort with bladder full were controlled, analyzing the pain, the feeling of weight and the burning in the pelvic area (all three parameters were measured by means of numerical scale VAS, before treatment, at the end of the attack therapy and at the end of the maintenance therapy).

FAAH = target: T2, FAAH (Rattus norvegicus, UniProt P97612); test: Maximum reduction of the activity of the PEA-degrading enzyme FAAH, rat brain membrane homogenates; type: biochemical
T2 construct: was also measured using homogenates rat brain membranes; from tissue; host or cells: rat brain membrane homogenates
T2 sequence (P97612 1-579): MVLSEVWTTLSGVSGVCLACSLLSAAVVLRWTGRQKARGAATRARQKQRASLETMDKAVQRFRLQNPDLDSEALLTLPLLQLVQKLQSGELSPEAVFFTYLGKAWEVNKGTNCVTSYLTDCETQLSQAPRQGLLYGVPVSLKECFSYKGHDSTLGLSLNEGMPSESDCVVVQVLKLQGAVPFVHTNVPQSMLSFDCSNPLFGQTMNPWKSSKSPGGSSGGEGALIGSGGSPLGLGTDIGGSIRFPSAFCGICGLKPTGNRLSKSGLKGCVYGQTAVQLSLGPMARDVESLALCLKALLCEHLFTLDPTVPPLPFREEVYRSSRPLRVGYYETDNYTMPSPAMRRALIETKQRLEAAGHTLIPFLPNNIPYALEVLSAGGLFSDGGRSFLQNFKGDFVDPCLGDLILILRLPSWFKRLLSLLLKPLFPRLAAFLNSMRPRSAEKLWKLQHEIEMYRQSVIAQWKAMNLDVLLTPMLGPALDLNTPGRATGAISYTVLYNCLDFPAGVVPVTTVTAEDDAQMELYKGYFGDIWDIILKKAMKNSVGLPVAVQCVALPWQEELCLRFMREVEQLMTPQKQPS
Experimental: as §1

[3] = experimental animals, oral administration; cited from earlier work
[4] = test system: knee osteoarthritis induced by monosodium iodoacetate (MIA); test: Osteoarthritis induced by sodium monoiodoacetate: knee edema by digital caliper; type: in vivo, rat; conditions: intra-articular Adelmidrol 1.5, 15 and 150 μg/injection, days 1, 8, 15; dose-dependent, evident at all analyzed times
Experimental: as §2, with “(i.p.).” for “(i.p.). The animals that received the MIA injection in their right knee represent the osteoarthritic (OA) group.”
In order to evaluate the formation of the edema in the right knee of the animals after MIA injection, a digital manual slide caliper (measuring capacity 0-150 mm; resolution: 0.01 mm; ROHS Compliant Electronic Digital Caliper—2 Biological Instruments SNC, Italy) was used. […] The edema was calculated as the difference between the […] of the right knee and left knee. […]
The various parameters are measured at different times in relation to the parameter itself (e.g. inflammatory parameters are evaluated only in the first week since the MIA, pain is always evaluated before and 60 min. after the administration of Adelmidrol).

HaCaT cells = test: Endogenous levels of AEA, 2-AG, PEA and OEA in HaCaT cells stimulated with Adelmidrol (LC-APCI-MS); type: cell-based, human; conditions: Adelmidrol 10 μM, 24 hours
Experimental: Cultured human keratinocytes, HaCaT, were grown in DMEM (Dulbecco's Modified Eagle Medium) supplemented with glutamine (2 mM), penicillin (400 U/ml), streptomycin ([…]), 10% FBS (Fetal Bovine Serum), in the presence of 5% CO2 and at 37° C. Thereafter, cells plated in 6-well multi-wells (9×10^5/well), once 70% confluence had been reached, were stimulated with Adelmidrol, 10 μM, or carrier (Ctrl, 0.05% methanol) for 24 hours in the presence of 5% CO2 at 37° C. After 24 hours, the cells and the surnatants were homogenized in 5 vol. of a chloroform/methanol TRIS-HCl 50 mM pH 7.4 (2:1:1) solution containing 10 pmol of [^2H]8anandamide (AEA) and 50 pmol of [^2H]52-arachidonoylglycerol (2-AG), [^2H]4palmitoylethanolamide (PEA) and [^2H]2oleoylethanolamide (OEA) (Bisogno et al., 1997). The organic-lipidic phase obtained from the four extractions with chloroform was subjected to purification by silica column chromatography, eluted by increasing concentrations of methanol in chloroform. The chloroform/methanol 90:10 fraction containing AEA, 2-AG, PEA and OEA was analyzed by liquid chromatography coupled to mass spectrometry using chemical ionization at atmospheric pressure (LC-APCI-MS) (Marsicano et al., 2002). The equipment used includes a Shimadzu HPLC (LC-10ADVP) coupled with a Shimadzu spectrometer (LCMS-2010) via a Shimadzu APCI interface. The ionization source temperature is 400° C. and a Phenomenex reverse phase HPLC column (C-18, 5 microns, 150×4.6 mm) is used. The mobile phase, consisting of a mixture of methanol/water/acetic acid (85/15/0.1%), passes through the column at a rate of 1 ml/min. The mass spectrum determination is carried out according to the selected ion monitoring (SIM) [Di Marzo et al. Nature 2001; 410:822-825]. Selected ions correspond to mass/charge values (m/z) of 356 and 348 (molecular ions of deuterated and non-deuterated AEA), 384.35 and 379.35 (molecular ions of deuterated and non-deuterated 2-AG), 304 and 300 (molecular ions of deuterated and non-deuterated PEA), 328 and 326 (molecular ions of deuterated and non-deuterated OEA). The quantity expressed as pmol/mg of lipid extract were compared using ANOVA followed by the Student-Newman-Keuls test.

## O=C(CCCCCCCC(=O)NCCO)NCCO [Adelmidrol, N,N′-Bis(2-hydroxyethyl)nonandiamide]
NAAA
  inhibition of the activity of NAAA (in words): does not inhibit
NAAA; Treatment with Adelmidrol 50 μM, Control 11.43 ± 1.72%, read-out: Maximum inhibition of the enzymatic activity (expressed as IC50), Enzyme NAAA
  inhibition at 50 µM: 11.3 ± 2.26%
[1]
  solubility in lipids: good solubility in lipids
  solubility in water: high solubility in water
TNF-α
  levels of TNF-α in the synovial fluid: reduction
[2]
  all the parameters evaluated (urination frequency, pain, weight, burning) after treatment: marked improvement
FAAH
  inhibition of the activity of FAAH (in words): does not inhibit
FAAH; Treatment with Adelmidrol 50 μM, Control 21.22 ± 3.18%, read-out: Maximum inhibition of the enzymatic activity (expressed as IC50), Enzyme FAAH
  inhibition at 50 µM: 20.1 ± 4.12%
[3]
  LD50: 2-3 g/kg body weight
[4]
  anti-inflammatory effect (knee edema): strong anti-inflammatory effect
HaCaT cells; vs Ctrl
  levels of 2-AG in HaCaT cells: No significant variation
  levels of AEA in HaCaT cells: No significant variation
  levels of OEA in HaCaT cells: No significant variation
HaCaT cells; basal values 31.6±5.6, n=6, P<0.0001
  levels of PEA in HaCaT cells: 66.4±9.6 pmol/mg of lipid extract
